Measurements from US20180112258A1, “MEDICAL USES AND METHODS FOR TREATING CANCER USING MONOPOLAR SPINDLE 1 (MPS1) KINASE INHIBITORS” (THE INSTITUTE OF CANCER RESEARCH: ROYAL CANCER HOSPITAL, priority 2015, published 2018).
Positions count from the first letter of the chain named. Like-named read-outs stand apart in the source and are kept apart here. Each block holds one compound with its values, some of them ahead of it.

What was measured:
parental HCT116 cells [1] = assay: Cell viability assay (CellTiterGlo, 4 days), parental HCT116; format: cell-based, human
parental HCT116 cells [2] = assay: Flow cytometry cell cycle profiles, parental HCT116; format: cell-based, human
Protocol: Cells were fixed overnight at −20° C. in 70% ethanol, washed in PBS, then incubated in 10 μg/ml propidium iodide and 0.5% RNase (Sigma) for 30 min and then analysed using LSRII flow cytometer (BD Biosciences).

parental HCT116 cells [3] = assay: Time-lapse microscopy, time in mitosis, parental HCT116; format: cell-based, human
Protocol: (§1) For analysis by immunofluorescence, cells were fixed in 1% formaldehyde for 5 min at room temperature, quenched in glycine, washed in PBS-Triton X-100 (0.1% PBS-T) and incubated for 1 hour in primary antibodies in PBS-T: MAD2 (Bethyl Laboratories Inc., A300-301A), CDC2020 (Millipore, MAB3775), MPS1 (Millipore, 05-682), MPS1 pT33pS37 (Life Technologies, 44-1325G) and ACA (ImmunoVision, HST-0100). After PBS-T washes, cells were incubated with fluorescent-conjugated secondary antibodies (Life Technologies), stained with DAPI (Life Technologies) and mounted onto slides with Vectashield (Vector Labs). Images were acquired using a Zeiss LSM 710 confocal microscope and processed using Velocity 3D Image analysis software (PerkinElmer). Time-lapse micrscopy was performed in 96-well Ibidi plate (Thistle Scientific) using a Diaphot inverted microscope (Nikon), in a humidified CO2 chamber at 37° C., using a motorized stage (Prior Scientific), controlled by Simple PCI software (Compix).

HeLa cells = assay: Time-lapse microscopy, time in mitosis and mitotic defects, HeLa; format: cell-based; conditions: 0.6 μM CCT251455
Protocol: as §1

[4] = tested on: kinetochore localisation of SAC proteins in HeLa cells; assay: Immunofluorescence of kinetochore proteins in HeLa cells; format: cell-based
Protocol: as §1

[5] = tested on: taxol or nocodazole-induced SAC; assay: Abrogation of taxol or nocodazole-induced SAC (mitotic index, MPM2 staining and flow cytometry); format: cell-based; conditions: within 1 hour following inhibitor treatment; 0.6 μM CCT251455
Protocol: (§2) Cells were fixed overnight at −20° C. in 70% ethanol, washed in PBS, then incubated in 10 μg/ml propidium iodide and 0.5% RNase (Sigma) for 30 min and then analysed using LSRII flow cytometer (BD Biosciences). To stain for mitosis, cells were incubated for 1 hour at 4° C. with anti-MPM2 antibodies (Millipore, 05-368), then 1 hour at 4° C. with FITC-conjugated secondary antibodies (Life technology).

[6] = molecular target: T1, recombinant full-length wild-type MPS1 (Homo sapiens, UniProt P33981); assay: Recombinant MPS1 kinase assay (electrophoretic mobility shift), WT; format: biochemical; conditions: mean ± SD, quadruplicate
T1 construct: For protein expression of full-length MPS1 proteins, Sf9 insect cells were grown at 27° C; made in house; host or cells: Sf9 insect cells (baculovirus, modified pFastBac1)
T1 sequence (P33981 1-857): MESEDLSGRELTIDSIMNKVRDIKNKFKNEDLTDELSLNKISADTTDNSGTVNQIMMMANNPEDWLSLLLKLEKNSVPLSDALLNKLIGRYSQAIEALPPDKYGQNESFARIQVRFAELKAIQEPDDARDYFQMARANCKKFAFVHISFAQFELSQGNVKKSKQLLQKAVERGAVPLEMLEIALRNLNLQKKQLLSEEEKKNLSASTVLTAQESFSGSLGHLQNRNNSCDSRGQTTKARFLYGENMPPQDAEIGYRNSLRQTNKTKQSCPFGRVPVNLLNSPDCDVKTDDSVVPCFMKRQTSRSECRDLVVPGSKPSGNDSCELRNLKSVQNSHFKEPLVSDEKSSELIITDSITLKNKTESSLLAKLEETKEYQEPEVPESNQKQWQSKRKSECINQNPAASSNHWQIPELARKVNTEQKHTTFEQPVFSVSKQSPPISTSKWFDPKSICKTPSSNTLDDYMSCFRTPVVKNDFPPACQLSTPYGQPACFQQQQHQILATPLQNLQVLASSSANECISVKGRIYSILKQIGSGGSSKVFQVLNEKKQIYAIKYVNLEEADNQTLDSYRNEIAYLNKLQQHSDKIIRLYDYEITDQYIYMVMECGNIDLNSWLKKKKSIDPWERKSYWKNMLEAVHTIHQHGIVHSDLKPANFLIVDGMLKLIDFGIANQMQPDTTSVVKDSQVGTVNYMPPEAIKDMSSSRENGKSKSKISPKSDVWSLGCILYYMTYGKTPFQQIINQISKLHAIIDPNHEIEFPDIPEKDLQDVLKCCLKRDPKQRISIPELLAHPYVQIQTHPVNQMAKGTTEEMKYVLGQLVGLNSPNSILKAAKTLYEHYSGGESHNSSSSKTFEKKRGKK
Protocol: (§3) For high ATP concentration assays, 1 mM ATP was used. An ECHO® 550 (Labcyte Inc) acoustic dispenser was used to generate duplicate 8 point dilution curves directly into 384-well low-volume polystyrene assay plates (Corning Life Sciences). The reaction was carried out for 90 min at room temperature.

[7] = molecular target: T2, recombinant full-length MPS1 p.C604W (Homo sapiens, UniProt P33981, C604W); assay: Recombinant MPS1 kinase assay (electrophoretic mobility shift), p.C604W; format: biochemical; conditions: for IC50: C604W, mean ± SD, quadruplicate
T2 construct: made in house; host or cells: Sf9 insect cells (baculovirus, modified pFastBac1)
T2 sequence (P33981 1-857 C604W): T1 sequence (P33981 1-857) with C604W
Protocol: as §3

[8] = tested on: NvR12 HCT116 cells (p.C604W); assay: Flow cytometry cell cycle profiles, NvR12; format: cell-based, human; conditions: NvR12, 24 hours
Protocol: as §2

[9] = tested on: HCT116 cells containing MPS1 p.M600T; assay: Cell viability assay, HCT116 NvR clones with MPS1 p.M600T (NvR1 etc.); conditions: for GI50: Homo sapiens
[10] = tested on: HCT116 cells containing MPS1 p.C604W; assay: Cell viability assay, HCT116 NvR clones with MPS1 p.C604W (NvR12 etc.); conditions: for GI50: Homo sapiens
[11] = ATP at Km, read-out: IC50 values at ATP Km
[12] = IC50 values at 1 mM ATP, 1 mM ATP
[13] = summary table of inhibitors vs mutations

SMILES: COc1cc(OC2CCN(C)CC2)ccc1Nc1ncc2c(n1)n(C1CCCC1)c(=O)n2C [AZ3146]
lethal concentration in cell viability assays (parental HCT116 cells [1]): 2 µM
GI50 (parental HCT116 cells [1]; Homo sapiens, HCT-116): 800 nM
effect on cell cycle profile (parental HCT116 cells [2]; 1 and 2 μM AZ3146, 24 hours): G1 and G2/M peaks are increasingly abolished
time to exit mitosis (parental HCT116 cells [3]; 2 μM AZ3146): 10 min

SMILES: Cn1cc(-c2cc3cnc(Nc4ccc(-c5cncn5C)cc4Cl)cc3n2C(=O)OC(C)(C)C)cn1 [CCT251455, Tert-Butyl 6-(2-Chloro-4-(1-methyl-1H-imidazol-5-yl)phenylamino)-2-(1-methyl-1H-pyrazol-4-yl)-1H-pyrrolo[3,2-c]pyridine-1-carboxylate]
cells with unaligned chromosomes (HeLa cells): 98%
time to exit mitosis (HeLa cells): ~17 min
concentration at which cell cycle profiles were abolished (parental HCT116 cells [2]; HCT116, 24 hour treatment): 0.32 µM
MPS1 kinetochore localisation ([4]; 0.6 μM CCT251455): increased
MPS1 pT33/S37 and pT676 signals ([4]; 0.6 μM CCT251455): no longer visible
kinetochore recruitment of BUB1 and BUBR1 ([4]; 0.6 μM CCT251455): reduced, but still visible by microscopy
kinetochore recruitment of MAD2, MAD1, ZW10 and CDC20 ([4]; 0.6 μM CCT251455): severely inhibited
kinetochore localisation of ZWINT-1, CENP-E, CENP-F and CENP-A pS7 ([4]; controls): remained unaffected
cells that had exited mitosis [5]: ~100%

IC50 [6, 11]: 3.3 ± 1.1 nM
IC50 [6, 12]: 60 ± 20 nM
IC50 [7, 11]: 13.3 ± 2.9 nM
IC50 [7, 12]: 16.3 ± 4 nM
SMILES: Cc1ncc(-c2ccc(Nc3cc4c(cn3)cc(-c3cnn(C)c3)n4C(=O)OC(C)C)cc2)n1C [Compound 2, Isopropyl 6-(4-(1,2-dimethyl-1H-imidazol-5-yl)-2-phenylamino)-2-(1-methyl-1H-pyrazol-4-yl)-1H-pyrrolo[3,2-c]pyridine-1-carboxylate]
concentration causing loss of cell cycle profiles (parental HCT116 cells [2]; parental, 24 hours): 600 nM
concentration causing loss of cell cycle profiles [8]: 100 nM

SMILES: CCc1cccc(CC)c1NC(=O)c1nn(C)c2c1CCc1cnc(Nc3ccc(C(=O)NC4CCN(C)CC4)cc3OC(F)(F)F)nc1-2 [NMS-P715]
GI50 ([9]; HCT-116, read-out: GI50 NMS-P715, NvR1, p.M600T): 2540 nM
GI50 ([9]; HCT-116, read-out: GI50 NMS-P715, NvR2, p.M600T): 1850 nM
GI50 ([9]; HCT-116, read-out: GI50 NMS-P715, NvR4, p.M600T): 2250 nM
GI50 ([9]; HCT-116, read-out: GI50 NMS-P715, NvR5, p.M600T): 2480 nM
GI50 ([9]; HCT-116, read-out: GI50 NMS-P715, NvR6, p.M600T): 2320 nM
GI50 ([10]; HCT-116, read-out: GI50 NMS-P715, NvR9, p.C604W): 2150 nM
GI50 ([10]; HCT-116, read-out: GI50 NMS-P715, NvR12, p.C604W): 2430 nM
GI50 ([10]; HCT-116, read-out: GI50 NMS-P715, NvR13, p.C604W): 4250 nM
GI50 ([10]; HCT-116, read-out: GI50 NMS-P715, NvR14, p.C604W): 3730 nM
GI50 ([10]; HCT-116, read-out: GI50 NMS-P715, NvR15, p.C604W): 3820 nM
GI50 ([10]; HCT-116, read-out: GI50 NMS-P715, NvR16, p.C604W): 3260 nM
GI50 ([10]; HCT-116, read-out: GI50 NMS-P715, NvR17, p.C604W): 3760 nM
GI50 ([10]; HCT-116, read-out: GI50 NMS-P715, NvR18, p.C604W): 3760 nM
GI50 ([10]; HCT-116, read-out: GI50 NMS-P715, NvR19, p.C604W): 3500 nM
GI50 ([10]; HCT-116, read-out: GI50 NMS-P715, NvR20, p.C604W): 3860 nM
GI50 ([10]; HCT-116, read-out: GI50 NMS-P715, NvR21, p.C604W): 2120 nM
GI50 ([10]; HCT-116, read-out: GI50 NMS-P715, NvR22, p.C604W): 2200 nM
GI50 ([10]; HCT-116, read-out: GI50 NMS-P715, NvR23, p.C604W): 2270 nM
GI50 ([10]; HCT-116, read-out: GI50 NMS-P715, NvR24, p.C604W): 2240 nM
GI50 ([10]; HCT-116, read-out: GI50 NMS-P715, NvR25, p.C604W): 4330 nM
GI50 ([10]; HCT-116, read-out: GI50 NMS-P715, NvR26, p.C604W): 2250 nM
GI50 ([10]; HCT-116, read-out: GI50 NMS-P715, NvR29, p.C604W): 4080 nM
GI50 ([10]; HCT-116, read-out: GI50 NMS-P715, NvR30, p.C604W): 1240 nM
GI50 ([10]; HCT-116, read-out: GI50 NMS-P715, NvR34, p.C604W): 2090 nM
GI50 ([10]; HCT-116, read-out: GI50 NMS-P715, NvR35, p.C604W): 2440 nM
mitotic exit (SAC override) (parental HCT116 cells [3]; 1 μM NMS-P715): rapidly exited mitosis

IC50 [6, 11]: 10.8 ± 3.7 nM
IC50 [6, 12]: 110 ± 18 nM
IC50 [7, 11]: 2600 ± 650 nM
IC50 [7, 12]: 8300 ± 2900 nM
fold resistance of recombinant p.C604W vs wild-type protein ([7]; recombinant full-length MPS1 (Table 2)): 75 fold
SMILES: Cn1cc(-c2ccc(Nc3ccc(C#N)c(NC4CCCCC4)n3)cc2OCC#N)cn1 [ONCOII]
resistance in cell viability assay vs parental ([9]; p.M600T (NvR1)): able to confer resistance
Resistance conferred by mutation p.M600T [9, 13]: R
resistance / potency in cell viability assay vs parental ([10]; p.C604W (NvR12)): able to confer resistance
Resistance conferred by mutation p.C604W [10, 13]: R
